Source: paper PMC5493200 (ACS infectious diseases, 2016)
In brackets after ≈: the same amount, converted by molar mass. Like-named read-outs stand apart in the source and are kept apart here.

Legend:
M. tuberculosis H37Rv = experiment: microbe, parasite or virus in culture; assay type: cell-based, Mycobacterium tuberculosis; details: for MIC (H37Rv): Table 5; for H37Rv MIC: Tables 1-4 and text
[1] = test system: M. tuberculosis H37Rv Rv1258c knockout (KO); experiment: microbe, parasite or virus in culture; assay type: cell-based; details: for Rv1258c KO MIC: Tables 1-4 and text, 7 days, 7H9 broth
[2] = target: Purified 70S M. smegmatis bacterial ribosomes (Mycolicibacterium smegmatis, UniProt A0QSG6); experiment: Ribosomal translation inhibition; assay type: biochemical; details: inhibits luciferase activity by 50%
Purified 70S M. smegmatis bacterial ribosomes, sequence (A0QSG6 whole entry): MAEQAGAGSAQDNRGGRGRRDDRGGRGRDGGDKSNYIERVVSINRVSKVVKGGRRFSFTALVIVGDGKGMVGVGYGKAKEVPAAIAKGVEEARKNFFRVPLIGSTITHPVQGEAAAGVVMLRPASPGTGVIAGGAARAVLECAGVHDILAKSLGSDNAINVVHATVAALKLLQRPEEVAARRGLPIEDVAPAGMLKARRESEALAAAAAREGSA

M. bovis BCG = assay type: cell-based; details: average of 2–3 replicates, standard deviation in parenthesis
[3] = Microsomal stability, human; assay type: in vitro ADME; details: human liver microsomes
[4] = Microsomal stability, mouse; assay type: in vitro ADME; details: mouse liver microsomes
Protein binding, human = assay type: in vitro ADME
Protein binding, mouse = assay type: in vitro ADME
HepG2 cells = experiment: Mammalian cytotoxicity; assay type: cell-based
M. tuberculosis Erdman = experiment: Mouse model of acute tuberculosis infection; assay type: in vivo; details: 200 mg/kg BID, 9 days, subcutaneous, vs control
[5] = ref [18]; cited from earlier work
Rv1258c efflux pump = details: H37Rv MIC / Rv1258c KO MIC
[6] = human liver microsomes; starred compounds; ref [4]; cited from earlier work
[7] = mouse liver microsomes; starred compounds; ref [4]; cited from earlier work

SMILES	MIC (H37Rv) (M. tuberculosis H37Rv)	H37Rv MIC (M. tuberculosis H37Rv)	Rv1258c KO MIC [1]	Ribosome IC50 [2]	Post Antibiotic Effect (M. bovis BCG)	Microsomal stability t1/2 human [3]	Microsomal stability t1/2 mouse [4]	Protein binding human (Protein binding, human)	Protein binding mouse (Protein binding, mouse)	Cytotoxicity (HepG2) (HepG2 cells)	Reduction of bacterial load in lungs (M. tuberculosis Erdman; first new trial (Figure 3B))	Phase II conjugative metabolism [5]	Reduction of bacterial load in lungs (M. tuberculosis Erdman; second new trial (Figure 3C))	MIC (M. tuberculosis H37Rv; Mycobacterium tuberculosis, H37RV, 168 h, read-out: H37Rv MIC)	MIC ([1]; Mycobacterium tuberculosis, H37RV, 168 h, read-out: Rv1258c KO MIC)	Efflux Ratio (Rv1258c efflux pump)	Microsomal stability t1/2 human [6]	Microsomal stability t1/2 mouse [7]
Br.Br.Br.CN[C@@H]1[C@H](O)[C@H](NC)[C@H]2O[C@]3(O)[C@H](O[C@@H]2[C@H]1O)O[C@H](C)C[C@H]3NC(=O)Cc1cc(Cl)c(C)cn1 [Compound 47, 3′-Dihydro-3′-deoxy-3′(R)-(4-chloro-5-methylpyridin-2-yl)acetylamino spectinomycin trihydrobromide]	0.8 µg/mL	0.8 µg/mL	0.8 µg/mL	0.23 µg/mL	102 (15) h	>50 h	>50 h	43.9%	42.7%	>400 µg/mL	more than 2 logs	subject to some phase II conjugative metabolism						
Br.Br.Br.CN[C@@H]1[C@H](O)[C@H](NC)[C@H]2O[C@]3(O)[C@H](O[C@@H]2[C@H]1O)O[C@H](C)C[C@H]3NC(=O)Cc1cc(Cl)c(OC)cn1 [Compound 48, 3′-Dihydro-3′-deoxy-3′(R)-(4-chloro-5-methoxypyridin-2-yl)acetylamino spectinomycin trihydrobromide]	3.1 µg/mL	3.1 µg/mL	3.1 µg/mL	0.42 µg/mL	72 (10) h	6.3 h	5.5 h	61.6%	72.9%	>400 µg/mL		subject to metabolism	1.6 log					
CN[C@@H]1[C@H](O)[C@H](NC)[C@H]2O[C@@]3(O)C(=O)C[C@@H](C)O[C@H]3O[C@@H]2[C@H]1O [SPC, Spectinomycin, reference compound]														100 µg/mL (≈ 301 µM)	6.3 µg/mL (≈ 19 µM)	16	2.5 h	>10 h
